± gives the expanded uncertainty stated by the source.
Assay: mn = molality of the nth substance listed, in mol/kg
Details: 101 kPa, Liquid, Linear variable-path acoustic interferometer

CCCC[N+](CCCC)(CCCC)CCCC.[Br-] [tetrabutylammonium bromide] + O
speed of sound (283.15 K, m1 = 0.05): 1463 ± 1.8 m/s
speed of sound (283.15 K, m1 = 0.075): 1470.4 ± 1.9 m/s
speed of sound (283.15 K, m1 = 0.1): 1477.8 ± 1.8 m/s
speed of sound (283.15 K, m1 = 0.2): 1506.2 ± 2.4 m/s
speed of sound (283.15 K, m1 = 0.3): 1532.5 ± 1.8 m/s
speed of sound (283.15 K, m1 = 0.5): 1579 ± 1.9 m/s
speed of sound (283.15 K, m1 = 0.75): 1628.2 ± 1.9 m/s
speed of sound (283.15 K, m1 = 1): 1667.1 ± 1.9 m/s
speed of sound (283.15 K, m1 = 1.5): 1718.2 ± 2 m/s
speed of sound (283.15 K, m1 = 2): 1743.4 ± 2.1 m/s
speed of sound (283.15 K, m1 = 2.5): 1752.2 ± 2.1 m/s
speed of sound (283.15 K, m1 = 3): 1753.9 ± 2.1 m/s
speed of sound (298.15 K, m1 = 0.05): 1508.4 ± 2 m/s
speed of sound (298.15 K, m1 = 0.075): 1514.2 ± 1.8 m/s
speed of sound (298.15 K, m1 = 0.1): 1520.2 ± 1.8 m/s
speed of sound (298.15 K, m1 = 0.2): 1541.4 ± 1.8 m/s
speed of sound (298.15 K, m1 = 0.3): 1561 ± 1.8 m/s
speed of sound (298.15 K, m1 = 0.5): 1596.3 ± 1.9 m/s
speed of sound (298.15 K, m1 = 0.75): 1632.7 ± 1.9 m/s
speed of sound (298.15 K, m1 = 1): 1661.2 ± 1.9 m/s
speed of sound (298.15 K, m1 = 1.5): 1697.4 ± 2 m/s
speed of sound (298.15 K, m1 = 2): 1713.7 ± 2 m/s
speed of sound (298.15 K, m1 = 2.5): 1718 ± 2.1 m/s
speed of sound (298.15 K, m1 = 3): 1717.6 ± 2.1 m/s
speed of sound (318.15 K, m1 = 0.05): 1544.6 ± 2 m/s
speed of sound (318.15 K, m1 = 0.075): 1548.4 ± 1.8 m/s
speed of sound (318.15 K, m1 = 0.1): 1552.9 ± 1.8 m/s
speed of sound (318.15 K, m1 = 0.2): 1567.4 ± 1.8 m/s
speed of sound (318.15 K, m1 = 0.3): 1580.7 ± 1.8 m/s
speed of sound (318.15 K, m1 = 0.5): 1604.7 ± 1.8 m/s
speed of sound (318.15 K, m1 = 0.75): 1627.3 ± 1.9 m/s
speed of sound (318.15 K, m1 = 1): 1644.1 ± 1.9 m/s
speed of sound (318.15 K, m1 = 1.5): 1663.3 ± 2 m/s
speed of sound (318.15 K, m1 = 2): 1669.5 ± 2 m/s
speed of sound (318.15 K, m1 = 2.5): 1668.5 ± 2.1 m/s
speed of sound (318.15 K, m1 = 3): 1668.3 ± 2.1 m/s
speed of sound (338.15 K, m1 = 0.05): 1558.6 ± 1.8 m/s
speed of sound (338.15 K, m1 = 0.075): 1561.2 ± 1.8 m/s
speed of sound (338.15 K, m1 = 0.1): 1564.2 ± 1.8 m/s
speed of sound (338.15 K, m1 = 0.2): 1573.6 ± 1.8 m/s
speed of sound (338.15 K, m1 = 0.3): 1582.4 ± 1.8 m/s
speed of sound (338.15 K, m1 = 0.5): 1597 ± 1.8 m/s
speed of sound (338.15 K, m1 = 0.75): 1610.3 ± 1.9 m/s
speed of sound (338.15 K, m1 = 1): 1619.5 ± 1.9 m/s
speed of sound (338.15 K, m1 = 1.5): 1626.6 ± 1.9 m/s
speed of sound (338.15 K, m1 = 2): 1625 ± 2 m/s
speed of sound (338.15 K, m1 = 2.5): 1619.5 ± 2 m/s
speed of sound (338.15 K, m1 = 3): 1615.4 ± 2.1 m/s

C[N+](C)(C)C.[Br-] [tetramethylammonium bromide] + O
speed of sound (283.15 K, m1 = 0.05): 1451 ± 1.7 m/s
speed of sound (283.15 K, m1 = 0.075): 1452.9 ± 1.7 m/s
speed of sound (283.15 K, m1 = 0.1): 1455 ± 1.7 m/s
speed of sound (283.15 K, m1 = 0.2): 1462.1 ± 1.7 m/s
speed of sound (283.15 K, m1 = 0.3): 1469.5 ± 1.7 m/s
speed of sound (283.15 K, m1 = 0.5): 1483.1 ± 1.7 m/s
speed of sound (283.15 K, m1 = 0.75): 1499.8 ± 1.7 m/s
speed of sound (283.15 K, m1 = 1): 1515.7 ± 1.8 m/s
speed of sound (283.15 K, m1 = 1.5): 1544.7 ± 1.8 m/s
speed of sound (283.15 K, m1 = 2): 1571.1 ± 1.8 m/s
speed of sound (283.15 K, m1 = 2.5): 1595.4 ± 1.8 m/s
speed of sound (283.15 K, m1 = 3): 1617.4 ± 1.8 m/s
speed of sound (298.15 K, m1 = 0.05): 1499.7 ± 1.8 m/s
speed of sound (298.15 K, m1 = 0.075): 1500.3 ± 1.7 m/s
speed of sound (298.15 K, m1 = 0.1): 1502.5 ± 1.7 m/s
speed of sound (298.15 K, m1 = 0.2): 1508.1 ± 1.7 m/s
speed of sound (298.15 K, m1 = 0.3): 1513.7 ± 1.8 m/s
speed of sound (298.15 K, m1 = 0.5): 1524.7 ± 1.8 m/s
speed of sound (298.15 K, m1 = 0.75): 1537.9 ± 1.8 m/s
speed of sound (298.15 K, m1 = 1): 1550.8 ± 1.8 m/s
speed of sound (298.15 K, m1 = 1.5): 1575.1 ± 1.8 m/s
speed of sound (298.15 K, m1 = 2): 1597.2 ± 1.8 m/s
speed of sound (298.15 K, m1 = 2.5): 1617 ± 1.8 m/s
speed of sound (298.15 K, m1 = 3): 1633.7 ± 1.9 m/s
speed of sound (318.15 K, m1 = 0.05): 1538.7 ± 1.9 m/s
speed of sound (318.15 K, m1 = 0.075): 1540 ± 1.8 m/s
speed of sound (318.15 K, m1 = 0.1): 1541.1 ± 1.8 m/s
speed of sound (318.15 K, m1 = 0.2): 1545.8 ± 1.8 m/s
speed of sound (318.15 K, m1 = 0.3): 1550.4 ± 1.8 m/s
speed of sound (318.15 K, m1 = 0.5): 1559.3 ± 1.8 m/s
speed of sound (318.15 K, m1 = 0.75): 1569.3 ± 1.8 m/s
speed of sound (318.15 K, m1 = 1): 1578.6 ± 1.8 m/s
speed of sound (318.15 K, m1 = 1.5): 1596.6 ± 1.8 m/s
speed of sound (318.15 K, m1 = 2): 1613.1 ± 1.8 m/s
speed of sound (318.15 K, m1 = 2.5): 1628.8 ± 1.8 m/s
speed of sound (318.15 K, m1 = 3): 1644.7 ± 1.9 m/s
speed of sound (338.15 K, m1 = 0.05): 1555.6 ± 1.8 m/s
speed of sound (338.15 K, m1 = 0.075): 1556.2 ± 1.8 m/s
speed of sound (338.15 K, m1 = 0.1): 1556.9 ± 1.8 m/s
speed of sound (338.15 K, m1 = 0.2): 1560.9 ± 1.8 m/s
speed of sound (338.15 K, m1 = 0.3): 1564.6 ± 1.8 m/s
speed of sound (338.15 K, m1 = 0.5): 1571 ± 1.8 m/s
speed of sound (338.15 K, m1 = 0.75): 1579.2 ± 1.8 m/s
speed of sound (338.15 K, m1 = 1): 1587.3 ± 1.8 m/s
speed of sound (338.15 K, m1 = 1.5): 1602 ± 1.8 m/s
speed of sound (338.15 K, m1 = 2): 1615.7 ± 1.8 m/s
speed of sound (338.15 K, m1 = 2.5): 1628.9 ± 1.8 m/s
speed of sound (338.15 K, m1 = 3): 1641.3 ± 1.9 m/s
